Laboratory results: patent US12629348B2, “Method and composition for treating osteoarthritis” (Vireo Systems, Inc., priority 2013, dated 2026)

System: cultured canine chondrocytes
Assay: TNFα release in cultured canine chondrocytes challenged with IL1b
Type: cell-based
Conditions: IL1b challenge; FIG. 4
Description: The study involved the use of cultured canine chondrocytes (i.e., cells within the joint that are activated during OA). The canine chondrocytes were subjected to an inflammatory challenge in the form of cytokine Interleukin 1 beta (“IL1b”). The canine chondrocytes were then treated with various anti-inflammatory compounds including Alpha-GEE; glucosamine; a TNFα receptor antagonist; and a NSAID (Rimadyl). Alpha-GEE was administered in concentrations ranging from 10 μM to 1000 μM. The resulting effects of the various treatments on both PGE2 release and TNFα release were examined.
A similar time dependent decrease in TNFα release was also observed in chondrocytes treated with Alpha-GEE, as shown in FIG. 4.

SMILES	effect on TNFα release in canine chondrocytes
CC(C(=O)O)c1ccc2c(c1)[nH]c1ccc(Cl)cc12 (centres unmarked) [Rimadyl]	significant increase
N[C@H]1C(O)O[C@H](CO)[C@@H](O)[C@@H]1O (some centres unmarked) [glucosamine]	no significant effect
